{"source": "patent US10555977B2", "about": "“Probiotic bacteria for the topical treatment of skin disorders” (DUPONT NUTRITION BIOSCIENCES APS, priority 2011, dated 2020)", "key": {"claudin-4 (CLDN4)": {"system": "claudin-4 (CLDN4)", "assay": "Real-time quantitative PCR of claudin-4 expression in differentiated keratinocytes", "format": "cell-based, human", "details": "betaine 10-500 μM, 24 h", "procedure": "(§1) Adult normal human primary keratinocytes (Invitrogen, Carlsbad, Calif., USA) were maintained in EpiLife® medium with 60 μM calcium (Invitrogen) supplemented with Human Keratinocyte Growth Supplement (HKGS) (Invitrogen) (basal medium) at 5% CO2 atmosphere. To differentiate the keratinocytes, the P5-P7 cells were plated on ThinCert™ cell culture inserts (Greiner Bio-one, Frickenhausen, Germany) at density of 10^5cells/cm^2. After overnight incubation at 5% CO2 atmosphere the basal medium was aspirated and changed to differentiation medium (DM) consisting of EpiLife® medium with 1.45 mM CaCl2 supplemented with human keratinocyte growth supplement and incubated for 4 days at 5% CO2 atmosphere. DM was changed both at both the apical and basolateral side every day. Test substances were given at fourth day after starting the differentiation.\n(§2) Betaine (Danisco) were dissolved in DM, and applied to apical side of differentiated keratinocytes at amounts of 0, 10, 50, 100, 250 and 500 μM. The cells were incubated for 1, 12, and 24 hours at which points TEER was measured as described below. […]\nThe differentiated keratinocytes were treated with soluble metabolites produced by probiotics, probiotic whole bacterial cells, and bacterial cell lysates from the apical side for 1 h, 8 h and 24 h at which the TEER was measured. […]"}, "[1]": {"system": "Adult normal human primary keratinocytes (tight junction integrity)", "assay": "Transepithelial electrical resistance (TEER) of differentiated keratinocyte monolayers", "format": "cell-based", "details": "for % Change in TEER (additional increase): 24 h", "procedure": "as §1, §2\nThe integrity of the monolayer was verified by measuring TEER before and after each time point using Millicell-ERS system (Millipore, Billerica, Mass., US) (26). The TEER obtained from the monolayer and the insert was subtracted with background TEER obtained from the insert to yield the monolayer resistance and multiplied with the area of the insert to obtain the result as ohm×cm^2. For the experiments with betaine and probiotics the results are expressed as a percentage change in TEER (% Change in TEER) which reflects the change in the resistance in the given time point compared to a control time point, which was the same cell monolayer before applying the test substances."}, "occludin (OCLN)": {"system": "occludin (OCLN)", "assay": "Real-time quantitative PCR of occludin expression in differentiated keratinocytes", "format": "cell-based, human", "details": "24 h, p<0.05", "procedure": "as §1, with “Test substances were given at fourth day after starting the differentiation.” left out\nas §2\n(§3) Real-time quantitative PCR of claudin-4 (CLDN4), occludin (OCLN), zonula occludens-1 (ZO-1) was done with TaqMan gene expression assays (Applied biosystems, Foster City, Calif., USA) designed for each specific gene in an amplification reaction of 20 μl according to manufacturer's instructions with 7500 Fast Real-time PCR System (Applied Biosystems). […]"}, "[2]": {"system": "zonula occludens-1 (ZO-1)", "assay": "Real-time quantitative PCR of zonula occludens-1 expression in differentiated keratinocytes", "format": "cell-based, human", "details": "betaine 10-500 μM, 24 h", "procedure": "as §1, with “Test substances were given at fourth day after starting the differentiation.” left out\nas §2, §3"}}}
{"compound": "C[N+](C)(C)CC(=O)O", "note": "[betaine, Betaine]", "values": [{"measurement": "Expression of CLDN4", "setting": "claudin-4 (CLDN4)", "result": "remained similar to the basal levels"}, {"measurement": "% Change in TEER", "setting": "[1]; 50 μM and higher concentrations of betaine, after 12 h, p<0.05 to p<0.001", "result": "remained increased"}, {"measurement": "% Change in TEER", "setting": "[1]; 50 μM betaine, after 1 hour, p<0.05", "result": "increased"}, {"measurement": "% Change in TEER (additional increase)", "setting": "[1]; 100 μM betaine, p<0.05, mean±SE", "result": "41.8±2.8", "unit": "%"}, {"measurement": "% Change in TEER (additional increase)", "setting": "[1]; 500 μM betaine, p<0.01, mean±SE", "result": "47.8±4.2", "unit": "%"}, {"measurement": "% Change in TEER", "setting": "[1]; lowest amount of betaine (10 μM), apical side", "result": "remained at the basal level"}, {"measurement": "Expression of OCLN", "setting": "occludin (OCLN); 100 μM betaine", "result": "decreased"}, {"measurement": "Expression of OCLN", "setting": "occludin (OCLN); 250 μM betaine", "result": "decreased"}, {"measurement": "Expression of ZO-1", "setting": "[2]", "result": "remained similar to the basal levels"}]}
